Measurements taken from patent US11059815B2, “Synthesis of small molecule histone deacetylase 6 degraders, compounds formed thereby, and pharmaceutical compositions containing them” (Wisconsin Alumni Research Foundation, priority 2018, dated 2021).

How the values were obtained:
HDAC6 = biological target: T1, HDAC6 (Mus musculus, UniProt Q9Z2V5); test: In-cell ELISA of HDAC6 in mice immortalized cell line 4935; format: cell-based; conditions: mice immortalized cell line 4935, in-cell ELISA
T1 construct: endogenous in cells; host or cells: mouse immortalized cell line 4935
T1 sequence (Q9Z2V5 1-1149): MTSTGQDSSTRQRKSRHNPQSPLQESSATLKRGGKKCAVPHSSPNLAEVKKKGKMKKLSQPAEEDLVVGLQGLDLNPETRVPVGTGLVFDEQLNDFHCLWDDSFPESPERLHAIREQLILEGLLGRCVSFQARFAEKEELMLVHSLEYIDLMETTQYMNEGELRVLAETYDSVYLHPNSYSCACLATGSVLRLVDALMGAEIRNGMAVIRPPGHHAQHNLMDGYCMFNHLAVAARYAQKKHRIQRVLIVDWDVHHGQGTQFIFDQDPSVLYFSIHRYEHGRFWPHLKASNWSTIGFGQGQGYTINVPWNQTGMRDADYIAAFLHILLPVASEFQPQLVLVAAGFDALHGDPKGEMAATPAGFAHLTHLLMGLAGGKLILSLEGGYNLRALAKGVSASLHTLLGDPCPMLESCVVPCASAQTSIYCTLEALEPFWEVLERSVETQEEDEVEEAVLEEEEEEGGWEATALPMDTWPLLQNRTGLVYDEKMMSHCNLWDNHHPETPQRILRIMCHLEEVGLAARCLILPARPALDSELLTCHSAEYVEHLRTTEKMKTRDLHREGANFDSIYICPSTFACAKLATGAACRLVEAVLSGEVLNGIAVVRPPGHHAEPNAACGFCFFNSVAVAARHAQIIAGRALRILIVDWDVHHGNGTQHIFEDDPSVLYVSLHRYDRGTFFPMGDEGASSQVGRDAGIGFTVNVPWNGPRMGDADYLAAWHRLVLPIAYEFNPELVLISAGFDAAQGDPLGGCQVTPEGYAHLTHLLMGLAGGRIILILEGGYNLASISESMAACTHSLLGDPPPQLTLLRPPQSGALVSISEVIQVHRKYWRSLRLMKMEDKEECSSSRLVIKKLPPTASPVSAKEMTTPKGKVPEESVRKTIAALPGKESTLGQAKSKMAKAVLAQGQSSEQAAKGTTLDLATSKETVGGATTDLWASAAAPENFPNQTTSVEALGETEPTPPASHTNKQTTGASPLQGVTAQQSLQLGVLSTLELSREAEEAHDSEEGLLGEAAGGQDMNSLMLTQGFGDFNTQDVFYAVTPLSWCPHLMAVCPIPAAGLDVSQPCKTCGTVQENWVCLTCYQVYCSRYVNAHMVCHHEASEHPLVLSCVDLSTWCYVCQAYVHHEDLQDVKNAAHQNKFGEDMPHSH
Description: FIG. 19 is a dose-response curve for HDAC6 expression as a function of concentration for compounds 2 and 3j from Part 2 of the Example section.
The degradation efficiency of HDAC6 induced by 2 and 3j in mice immortalized cell line 4935 was also tested using western blot and in-cell ELISA. In concentrations ranging from 10 nM to 10 μM, VHL-based degrader 3j induced more HDAC6 degradation and tubulin acetylation than CRBN-based degrader 2 (data not shown). […] The maximal degradation percentage for HDAC6 induced by 3j is 56.8%, which is better than 45.3% of Dmax induced by compound 2. […] The VHL E3 ligase-based degrader 3j may have advantages over CRBN-based degrader 2 in animal studies using mice as the model system.

acetylated tubulin = test: Western blot of acetylated tubulin in MM1S cells; format: cell-based, human; conditions: 100 nM
Description: FIGS. 12A, 12B, and 12C are a series of western blots showing that degrader 12d selectively promotes HDAC6 degradation in MM1S cells.
To further examine the selectivity of the new generation of HDAC6 degraders, compound 12d was compared to SAHA, Next-A, degrader 1 and pan-inhibitor 2 for change of acetylated a-tubulin and acetylated histone H3.
When the cells reached 90% confluence, they were harvested and plated 1×10^6 cells per well in 6-well plate. After overnight seeding, the cells were treated with a solution of compounds or vehicle in culture medium. The culture medium was removed after treatment and then washed twice with cold PBS. To obtain whole cell lysate, all cells were treated with RIPA lysis buffer (25 mM Tris, pH 7-8, 150 mM NaCl, 0.1% SDS, 0.5% sodium deoxycholate, 1% Triton X-100, protease inhibitor cocktail (Roche, 1 tablet per 10 mL) and 1 mM PMSF) on ice for 10 minutes. Supernatant was collected after spinning down at 16,000 g at 4° C. for 15 minutes. Protein concentration was measured by using the Pierce BCA protein assay (Thermo Fisher Scientific). About 10-40 μg of total protein was mixed with 4× Laemmli Loading Dye (250 mM Tris, pH 6.8, 40% glycerol, 5% SDS, 0.005% bromophenol blue, 4% BME) and heated at 95-100° C. for 5 minutes. The heated sample was then subjected to 7.5-12% SDS-PAGE and transferred to PVDF membrane (Bio-Rad,). The membrane was blocked in 5% non-fat milk (Bio-rad) in TBS-T washing buffer (137 mM NaCl, 20 mM Tris, 0.1% Tween) and then incubated with primary antibodies at 4° C. overnight. […] The Immunoblot was generated by ChemiDoc MP Imaging Systems (Bio-Rad) and analyzed by Image J software (only available for download online at https://imagej.net/Downloads). […]
The activity of all eleven “n+4” VHL-based potential degraders to suppress HDAC6 expression was tested at 100 nM and compared to CRBN degrader 2 in MM1S cells. The resulting cells were analyzed for HDAC6 expression by in-cell ELISA (FIG. 15). […]

SMILES	DC50 (HDAC6) [µM]	Dmax (HDAC6; read-out: maximal degradation percentage for HDAC6 (Dmax)) [%]	change of acetylated tubulin (acetylated tubulin)
CCCCN(Cc1ccc(C(=O)NO)cc1)C(=O)Nc1ccc(OCCCCCn2cc(CNc3cccc4c3C(=O)N(C3CCC(=O)NC3=O)C4=O)nn2)cc1 (stereo not shown) [Compound 2]	~0.017	45.3	–
CCCCN(Cc1ccc(C(=O)NO)cc1)C(=O)Nc1ccc(OCCCCCn2cc(CNc3cccc4c3C(=O)N(C3CCC(=O)NC3=O)C4=O)nn2)cc1 (stereo not shown) [Compound 12d, 4-((1-butyl-3-(4-((5-(4-(((2-(2,6-dioxopiperidin-3-yl)-1,3-dioxoisoindolin-4-yl)amino)methyl)-1H-1,2,3-triazol-1-yl)pentyl)oxy)phenyl)ureido)methyl)-N-hydroxybenzamide]	–	–	increased
CCCCN(Cc1ccc(C(=O)NO)cc1)C(=O)Nc1ccccc1 [Next-A, 4-[[butyl[(phenylamino)carbonyl]amino]methyl]-N-hydroxy-benzamide, reference compound]	–	–	didn't
